Reference: US8778984B2, “Aldosterone synthase inhibitor” (Eli Lilly and Company, priority 2011, dated 2014)
pIC50: −log10 of the molar value.

Experiments:
Assay type in all cases: cell-based
human cyp11B2 = target: T1, human cyp11B2 (Homo sapiens, UniProt P19099); assay: Aldosterone Synthase Inhibitor Assay (V79-hcyp11B2 cells, aldosterone by LC-MS); conditions: aldosterone production from 1 μM DOC, 24 hours incubation, geometric means, separate experiments
T1 construct: expressed in transfected cells
T1 sequence (P19099 25-503): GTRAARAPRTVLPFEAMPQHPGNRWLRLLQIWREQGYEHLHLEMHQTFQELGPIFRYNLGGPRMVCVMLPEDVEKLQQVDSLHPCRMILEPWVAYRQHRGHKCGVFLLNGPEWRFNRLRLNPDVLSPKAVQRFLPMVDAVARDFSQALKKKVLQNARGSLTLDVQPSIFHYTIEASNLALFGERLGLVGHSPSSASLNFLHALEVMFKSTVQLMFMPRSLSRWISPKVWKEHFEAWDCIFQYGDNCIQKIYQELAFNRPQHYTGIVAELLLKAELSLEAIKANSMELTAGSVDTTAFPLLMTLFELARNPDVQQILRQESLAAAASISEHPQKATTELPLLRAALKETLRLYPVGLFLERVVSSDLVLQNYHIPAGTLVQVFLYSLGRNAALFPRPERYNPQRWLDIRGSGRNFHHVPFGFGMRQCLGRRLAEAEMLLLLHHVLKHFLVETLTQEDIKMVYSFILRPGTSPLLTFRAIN
Protocol: Chinese hamster fibroblast cells (V79, ATCC™) constitutively expressing human cyp11B2 are established by transfection with a mammalian expression vector harboring the human cyp11B2 cDNA under CMV promoter and a neomycin antibiotic resistant gene for selection in mammalian cells. V79 cells are transfected in T225 cm^2 flasks with the lipofectamine transfection reagent and the human cyp11B2 cDNA. Positive clones are selected with the selection antibiotic geneticin at 1 mg/mL.
Aldosterone production from transfected cells is initiated by the addition of 1 μM DOC in the medium. After 24 hours incubation, 100 μL cell culture medium is collected and aldosterone concentration in the medium is determined using a liquid chromatography-mass spectrometry (LC-MS) method. […] The wells are then extracted 3× with EtOAc (150 μl) using the FX, combining the organic layers in a new 96-well plate. The solvent is dried in a GeneVac HT-4 or under nitrogen. […] A 25 μl aliquot of the sample is injected and a gradient from 20-100% ACN+0.1% formic acid (FA) in 1 min is initiated. Aldosterone elutes at 0.7 min. Starting conditions are held for 1 minute to re-equilibrate the column. An ABI 4000 tandem mass spectrometer is used for MS/MS analysis in the negative ion mode. […] The area under the peak from each transition is added together to comprise the signal from aldosterone and IS, respectively. […] The detection limit for aldosterone is […].
(§1) DOC and various concentrations of test compounds in 1:3 dilution increments are added to the cell culture medium. After 24 hours incubation, 100 μl of cell medium are collected and aldosterone concentration determined as described above. Data are fit to a 4 parameter-fit logistics curve to determine IC50 values.

human cyp11B1 = target: T2, human cyp11B1 (Homo sapiens, UniProt P15538); assay: Cortisol Inhibition Assay (V79-human cyp11B1 cells, cortisol by LC-MS); conditions: for Selectivity Ratio: IC50(hcyp11B1)/IC50(hcyp11B2); for pIC50: V79-human cyp11B1 cells, cortisol production from 1 μM 11-deoxycortisol, 24 hours incubation, read-out: IC50 (hcyp11B1)
T2 construct: expressed in transfected cells
T2 sequence (P15538 25-503): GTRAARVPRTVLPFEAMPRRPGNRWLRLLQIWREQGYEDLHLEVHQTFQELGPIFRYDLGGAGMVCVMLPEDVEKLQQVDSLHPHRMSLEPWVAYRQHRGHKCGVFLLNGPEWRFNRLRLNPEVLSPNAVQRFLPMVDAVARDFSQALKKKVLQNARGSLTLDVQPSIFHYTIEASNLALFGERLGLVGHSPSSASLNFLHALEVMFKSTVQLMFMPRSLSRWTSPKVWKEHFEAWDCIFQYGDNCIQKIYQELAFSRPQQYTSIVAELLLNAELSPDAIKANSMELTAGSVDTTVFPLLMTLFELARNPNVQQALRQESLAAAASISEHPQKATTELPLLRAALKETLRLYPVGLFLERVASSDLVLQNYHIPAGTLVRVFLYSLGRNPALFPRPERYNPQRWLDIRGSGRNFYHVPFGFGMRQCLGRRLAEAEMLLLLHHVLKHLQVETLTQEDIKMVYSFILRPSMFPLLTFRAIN
Protocol: Chinese hamster fibroblast cells (V79) constitutively expressing human cyp11B1 are established by transfection with a mammalian expression vector harboring the human cyp11B1 cDNA under CMV promoter and a neomycin antibiotic resistant gene for selection in mammalian cells. V79 cells are transfected in T225 cm^2 flasks with the lipofectamine transfection reagent and the human cyp11B1 cDNA. Positive clones are selected with the selection antibiotic geneticin at 1 mg/mL. Cortisol production from transfected cells is initiated by the addition of 1 μM 11-deoxycortisol in the medium. After 24 hours incubation, culture medium is collected and cortisol concentration in the medium is determined using a liquid chromatography-mass spectrometry (LC-MS) method. The cell media (100 μL) is transferred to a new deep-well 96-well plate. A Beckman Coulter FX liquid handling system (modified for use with organic solvents) with a 96-tip head is used to add an IS solution to each well (10 μl of 200 ng/mL d-4-cortisol). The wells are then extracted 3× with EtOAc (300 μl) using the FX, combining the organic layers in a new deep-well 96-well plate. The solvent is then dried in a GeneVac HT-4 or under nitrogen. The FX is then used to reconstitute the samples in 50% MeOH/water (100 μl) and the plates are heat-sealed.
A 40 μl aliquot of the sample is injected and a gradient from 20-100% MeOH in 0.95 min is initiated. […] Starting conditions are then held for 1 minute to re-equilibrate the column. An ABI QTRAP 4000 tandem mass spectrometer is used for MS/MS analysis in the positive ion mode. […] These are respectively integrated to give the peak areas. The cortisol/IS area-ratio is used to determine cortisol concentration by comparison to a standard curve. The detection limit for cortisol is 1 ng/mL.
as §1, with “11-Deoxycortisol” for “DOC”, “cortisol” for “aldosterone”

[1] = target: cynomolgus monkey cyp11B1 (Macaca fascicularis, UniProt A0A2K5ULY1); assay: Cynomolgus Monkey Cortisol Inhibition Assay; conditions: V79 cells expressing cynomolgus monkey cyp11B1; n=1; read-out: relative IC50, cynomolgus monkey cortisol inhibition assay
Protocol: Chinese hamster fibroblast cells (V79) constitutively expressing cynomolgus monkey cyp11B1 is established by transfection with a mammalian expression vector harboring the cynomolgus monkey cyp11B1 cDNA. This cell line was used to measure the activity of compounds in inhibiting […] from cynomolgus monkey enzyme. Cell culture condition and cortisol detection method is performed following the same protocol described in the “cortisol inhibition assay”.

Chain of cynomolgus monkey cyp11B1 (A0A2K5ULY1 entry or part of it): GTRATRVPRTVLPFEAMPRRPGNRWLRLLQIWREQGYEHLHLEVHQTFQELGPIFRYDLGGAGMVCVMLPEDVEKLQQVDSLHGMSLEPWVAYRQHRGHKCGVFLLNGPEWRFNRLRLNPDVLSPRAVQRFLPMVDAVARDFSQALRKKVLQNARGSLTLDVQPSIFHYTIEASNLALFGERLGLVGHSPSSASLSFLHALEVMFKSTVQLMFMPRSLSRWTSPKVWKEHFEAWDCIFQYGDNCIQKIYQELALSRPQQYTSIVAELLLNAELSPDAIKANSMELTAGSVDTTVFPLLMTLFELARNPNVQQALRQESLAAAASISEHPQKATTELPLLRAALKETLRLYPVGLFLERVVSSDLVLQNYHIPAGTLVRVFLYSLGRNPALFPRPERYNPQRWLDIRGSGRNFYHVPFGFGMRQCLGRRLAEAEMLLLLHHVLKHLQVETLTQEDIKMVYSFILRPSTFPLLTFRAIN

| SMILES | pIC50 (human cyp11B2) | Selectivity Ratio (human cyp11B1) | pIC50 (human cyp11B1) | pIC50 [1] |
| --- | --- | --- | --- | --- |
| CC1(C)C[C@H](c2ccc(C#N)cc2)c2cn[nH]c21 (single isomer, unassigned) [Example 1] | 8.30 | 33.0 | 6.78 | 6.68 |
| CC1(C)CC(c2ccc(C#N)cc2F)c2cn[nH]c21 (single isomer, unassigned; isomer 1) [Example 49, 4-(6,6-Dimethyl-4,5-dihydro-1H-cyclopenta[c]pyrazol-4-yl)-3-fluoro-benzonitrile, isomer 1] | 8.15 | 44.4 | 6.51 | 6.24 |
